Earlier results on five compounds are cited in patent publication US20070119380A1, “Additive Composition for Feeding Aquaculture Animals and Feed Containing the Same” (priority 2003, published 2007).

For series [1] the following is noted: in whitefish flesh/muscle, fresh/wet sample.
Series [2] has as its system mice. As to conditions: interperitoneal and oral administration.

Consider `Oc1c(Br)cc(Br)cc1Br` [2,4,6-tribromophenol], for which, in series [1], the “minimal amount (flavor threshold value) to produce a recognizable sensation” value (“minimal amount (flavor threshold value)” below) was 10 ng/g. Besides, in series [2], the sub-lethal toxic effects entry is “no sub-lethal toxic effects”.

In the case of `Oc1ccc(Br)cc1Br` [2,4-dibromophenol], in series [1], the “minimal amount (flavor threshold value)” value is listed as 50 ng/g. In the case of `Oc1c(Br)cccc1Br` [2,6-dibromophenol], the “minimal amount (flavor threshold value)” value in series [1] is 0.1 ng/g. Consider `Oc1ccccc1Br` [2-bromophenol], for which the “minimal amount (flavor threshold value)” value in series [1] is given as 10 ng/g. The sub-lethal toxic effects entry in series [2] is “no sub-lethal toxic effects”.

`Oc1ccc(Br)cc1` [4-bromophenol]: the “minimal amount (flavor threshold value)” value in series [1] was 20 ng/g.
